Measurements: ChEMBL document CHEMBL1201862, “PubChem BioAssay data set” (2004)
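Cells were grown in 96-well plates and exposed to each compound for 48 hours at five concentrations; endpoints were interpolated linearly between bracketing concentrations, or set to the highest concentration if not reached. GI50: concentration for 50% inhibition of growth.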 Calls of active or inactive are those of the source. Rule as the data show it: active = GI50 up to about 1.1 µM and inactive = higher.

Key:
Test in all cases: DTP human tumour cell line panel, 48 h
786-0 = tested on: 786-0
DU-145 = tested on: DU-145
HT-29 = tested on: HT-29
Hs-578T = tested on: Hs-578T
KM12 = tested on: KM12
MDA-N = tested on: MDA-N
MOLT-4 = tested on: MOLT-4
NCI-H226 = tested on: NCI-H226
NCI-H522 = tested on: NCI-H522
OVCAR-8 = tested on: OVCAR-8
PC-3 = tested on: PC-3
SK-MEL-2 = tested on: SK-MEL-2
SK-MEL-5 = tested on: SK-MEL-5
SNB-75 = tested on: SNB-75
TK-10 = tested on: TK-10
UACC-62 = tested on: UACC-62
HCC 2998 = tested on: HCC 2998
NCI-H460 = tested on: NCI-H460
RXF 393 = tested on: RXF 393
UACC-257 = tested on: UACC-257

Row | Compound | GI50 (786-0) | GI50 (DU-145) | GI50 (HT-29) | GI50 (Hs-578T) | GI50 (KM12) | GI50 (MDA-N) | GI50 (MOLT-4) | GI50 (NCI-H226) | GI50 (NCI-H522) | GI50 (OVCAR-8) | GI50 (PC-3) | GI50 (SK-MEL-2) | GI50 (SK-MEL-5) | GI50 (SNB-75) | GI50 (TK-10) | GI50 (UACC-62) | GI50 (HCC 2998) | GI50 (NCI-H460) | GI50 (RXF 393) | GI50 (UACC-257)
1 | C/C1=C\[C@H](C)C[C@H](C)OC(=O)C[C@H](c2ccc(O)cc2)NC(=O)[C@H](Cc2ccc(O)c(Br)c2)N(C)C(=O)[C@H](C)NC(=O)[C@@H](C)C1 | > 25 µM (inactive) | > 25 µM (inactive) | > 25 µM (inactive) | > 25 µM (inactive) | > 25 µM (inactive) | > 25 µM (inactive) | > 25 µM (inactive) | > 25 µM (inactive) | > 25 µM (inactive) | > 25 µM (inactive) | > 25 µM (inactive) | > 25 µM (inactive) | > 25 µM (inactive) | > 25 µM (inactive) | > 25 µM (inactive) | > 25 µM (inactive) | – | – | – | –
2 | COC(=O)/C=C(\C)CC(O)/C=C(\C)CCC=C(C)C (centres undefined) | 80.5 µM (inactive) | – | 24.1 µM (inactive) | 80 µM (inactive) | 40.4 µM (inactive) | 35.5 µM (inactive) | 18.7 µM (inactive) | 45 µM (inactive) | – | 22.3 µM (inactive) | 29.8 µM (inactive) | 19.1 µM (inactive) | 19.5 µM (inactive) | 9.44 µM (inactive) | 55.8 µM (inactive) | 40.7 µM (inactive) | 27.9 µM (inactive) | 49.7 µM (inactive) | 31.7 µM (inactive) | 47.4 µM (inactive)
3 | Cc1ccc2c(c1)CC1(C2=O)[C@H](c2ccccc2)C2C(=O)c3ccc(C)cc3C2[C@H]1c1ccccc1 (some centres undefined) | > 100 µM (inactive) | > 100 µM (inactive) | > 100 µM (inactive) | – | > 100 µM (inactive) | > 100 µM (inactive) | 43.8 µM (inactive) | > 100 µM (inactive) | > 100 µM (inactive) | > 100 µM (inactive) | 37.8 µM (inactive) | – | – | > 100 µM (inactive) | > 100 µM (inactive) | > 100 µM (inactive) | 43 µM (inactive) | > 100 µM (inactive) | > 100 µM (inactive) | > 100 µM (inactive)
4 | COC(=O)/C=C(\S/C=C(/c1ccccc1)N1CCn2c(C(=O)c3ccccc3)c(C(=O)OC)c(C(=O)OC)c21)C(=O)OC | 1.66 µM (inactive) | – | 2.77 µM (inactive) | > 10 µM (inactive) | > 10 µM (inactive) | > 10 µM (inactive) | 1.79 µM (inactive) | > 10 µM (inactive) | 0.434 µM (active) | 1.73 µM (inactive) | 6.25 µM (inactive) | > 10 µM (inactive) | > 10 µM (inactive) | > 10 µM (inactive) | 2.63 µM (inactive) | > 10 µM (inactive) | > 10 µM (inactive) | > 10 µM (inactive) | 2.67 µM (inactive) | 3.07 µM (inactive)
5 | COc1ccc2c(c1)NC1(CCN(CCCC(=O)c3ccc(F)cc3)CC1)N=N2 | 19.3 µM (inactive) | 18.5 µM (inactive) | 24.6 µM (inactive) | – | 20.1 µM (inactive) | 17.7 µM (inactive) | 15.3 µM (inactive) | 22 µM (inactive) | 16.9 µM (inactive) | – | 23.1 µM (inactive) | 17.9 µM (inactive) | 12.6 µM (inactive) | 15.1 µM (inactive) | 20.7 µM (inactive) | 20.9 µM (inactive) | 14.8 µM (inactive) | 26.1 µM (inactive) | 16.6 µM (inactive) | 17.6 µM (inactive)
6 | COC(=O)C1CCCN1C(=O)C(Cc1cn(S(=O)(=O)c2ccc(C)cc2)cn1)NC(=O)OC(C)(C)C (centres undefined) | > 100 µM (inactive) | – | > 100 µM (inactive) | > 100 µM (inactive) | > 100 µM (inactive) | > 100 µM (inactive) | > 100 µM (inactive) | > 100 µM (inactive) | – | > 100 µM (inactive) | > 100 µM (inactive) | > 100 µM (inactive) | > 100 µM (inactive) | > 100 µM (inactive) | > 100 µM (inactive) | > 100 µM (inactive) | > 100 µM (inactive) | > 100 µM (inactive) | > 100 µM (inactive) | > 100 µM (inactive)
7 | Oc1ccc2ccccc2c1CCc1c(O)ccc2ccccc12 | 16.2 µM (inactive) | – | 4.41 µM (inactive) | 16.2 µM (inactive) | 11.8 µM (inactive) | 13.5 µM (inactive) | – | 13.7 µM (inactive) | – | 14.5 µM (inactive) | 13.9 µM (inactive) | – | 12.6 µM (inactive) | 3.66 µM (inactive) | 18.6 µM (inactive) | 9.29 µM (inactive) | 3.81 µM (inactive) | 10.4 µM (inactive) | 11.7 µM (inactive) | 13.9 µM (inactive)
8 | N=c1nc(N)nc(N)n1-c1ccc(S(N)(=O)=O)cc1 | > 100 µM (inactive) | > 100 µM (inactive) | > 100 µM (inactive) | – | > 100 µM (inactive) | > 100 µM (inactive) | > 100 µM (inactive) | > 100 µM (inactive) | > 100 µM (inactive) | > 100 µM (inactive) | > 100 µM (inactive) | > 100 µM (inactive) | > 100 µM (inactive) | – | > 100 µM (inactive) | > 100 µM (inactive) | – | > 100 µM (inactive) | > 100 µM (inactive) | > 100 µM (inactive)
9 | COc1cc(Oc2c(C)c(Cl)c(OC)c(Cl)c2OC)c2c(c1Cl)COC2=O | 17.1 µM (inactive) | 52.6 µM (inactive) | 9.23 µM (inactive) | 54.7 µM (inactive) | 20.9 µM (inactive) | 14.3 µM (inactive) | 10 µM (inactive) | 27.9 µM (inactive) | 11.5 µM (inactive) | 17.6 µM (inactive) | – | – | 12.2 µM (inactive) | 41.9 µM (inactive) | 71.3 µM (inactive) | 33.7 µM (inactive) | 26.6 µM (inactive) | 10.7 µM (inactive) | 35.6 µM (inactive) | 31.9 µM (inactive)
10 | CN1CC(c2ccccc2)=CC2=C1C=CC(=N)/C2=N\N | > 100 µM (inactive) | – | > 100 µM (inactive) | 35.3 µM (inactive) | > 100 µM (inactive) | > 100 µM (inactive) | > 100 µM (inactive) | 6.65 µM (inactive) | > 100 µM (inactive) | > 100 µM (inactive) | > 100 µM (inactive) | 48.2 µM (inactive) | > 100 µM (inactive) | 20.9 µM (inactive) | > 100 µM (inactive) | > 100 µM (inactive) | > 100 µM (inactive) | > 100 µM (inactive) | – | > 100 µM (inactive)
11 | Nc1nc(-c2ccccc2)c(Cl)c(-c2cc(Cl)ccc2O)n1 | 24.4 µM (inactive) | 11.1 µM (inactive) | 49.2 µM (inactive) | – | 16.7 µM (inactive) | > 100 µM (inactive) | > 100 µM (inactive) | 24.7 µM (inactive) | 11.6 µM (inactive) | 14 µM (inactive) | 36.1 µM (inactive) | 38.4 µM (inactive) | 14.2 µM (inactive) | 13.7 µM (inactive) | 15.5 µM (inactive) | 50.8 µM (inactive) | > 81.1 µM (inactive) | 17 µM (inactive) | 13.8 µM (inactive) | > 100 µM (inactive)
